How the values were obtained:
[1] = tested on: Human HCT-8 Ileocecal Xenograft; assay: Antitumor activity by I.V. push, daily × 5, against human HCT-8 ileocecal xenograft
From the text: [M. G. Nair and Ann Abraham, U.S. Pat. No. 4,996,207 (1991); M. G. Nair, U.S. Pat. No. 5,073,554 (1991 )]. […] [Ann Abraham, M. G. Nair, et al. Advanced in Exp. Med. and Biol. 663-666 (1993)].
MIR: Maximum inhibitory rate. TD: Tumor doubling time.
CR: Complete Regression. PR Partial Regression.
(§1) MWL: Maximum Weight Loss.

[2] = Antitumor activity by continuous i.v. infusion (C.I.) × 5d against human HCT-8 ileocecal xenograft; format: in vivo, human (xenograft in nude mice); conditions: mouse, in vivo, iv; 0.25 mg/kg, C.I. × 5d; read-out: death
From the text: (§2) Antitumor Activity of MDAM by C.I. × 5d
(§3) against HUMAN HCT-8 Ileocecal Xenograft
(§4) MIR: Maximum inhibitory rate.
(§5) TD: Tumor doubling time.
(§6) CR: Complete Regression.
(§7) PR: Partial Regression.
as §1

[3] = tested on: Human HCT-8 Ileocecal Xenograft; assay: as above; format: in vivo, human (xenograft in nude mice); conditions: for CR: Complete Regression / MIR: Maximum inhibitory rate / PR: Partial Regression / TD: Tumor doubling time: C.I. × 5d
From the text: as §2, §3, §4, §5, §6, §7, §1

## CN(Cc1cnc2nc(N)nc(N)c2n1)c1ccc(C(=O)N[C@@H](CCC(=O)O)C(=O)O)cc1 [MTX, methotrexate, reference compound]
[1]; 1 mg/kg, i.v. push daily × 5
  CR: Complete Regression: 0%
  MIR: Maximum inhibitory rate: 29.8 ± 8.6%
  MWL: Maximum Weight Loss: 14.0 ± 3.0%
  PR: Partial Regression: 0%
  TD: Tumor doubling time: 4.6 ± 0.6 days
[1]; iv push, HCT-8 xenograft
  measurable antitumor activity: did not exhibit any measurable antitumor activity
[2]
  mortality: 100%
[3]; 0.1 mg/kg
  CR: Complete Regression: 0%
  MIR: Maximum inhibitory rate: 50.6 ± 9.6%
  PR: Partial Regression: 0%
  TD: Tumor doubling time: 4.8 ± 0.4 days
[3]; 0.2 mg/kg
  CR: Complete Regression: 0%
  MIR: Maximum inhibitory rate: 52.8 ± 8.5%
  PR: Partial Regression: 0%
  TD: Tumor doubling time: 5 ± 0.5 days
[3]; 0.25 mg/kg
  CR: Complete Regression: 0%
  PR: Partial Regression: 0%
[3]; continuous 5 day iv infusion, HCT-8 xenograft
  measurable antitumor activity: did not exhibit any measurable antitumor activity
